Assay results from US6825209B2, “Compounds having unique CB1 receptor binding selectivity and methods for their production and use” (Research Triangle Institute, priority 2002, dated 2004).
Read-outs that look alike come from different tables or passages of the source.

Key:
[1] = target: T1, G-protein-linked cannabinoid receptors (Rattus norvegicus, UniProt P20272); assay: GTP-γ-[35S] binding in whole rat brain; format: biochemical; conditions: whole rat brain membranes; for Emax, GTP-γ-[35S] in Whole Rat Brain / Emax: effects reported as percent change from basal; for Emax: read-out: Emax, GTP-γ-[35S] in Whole Rat Brain
T1 construct: tissue Charles River or Pel-Freez Biologicals; host or cells: whole rat brain crude membrane homogenate
T1 sequence (P20272 whole entry): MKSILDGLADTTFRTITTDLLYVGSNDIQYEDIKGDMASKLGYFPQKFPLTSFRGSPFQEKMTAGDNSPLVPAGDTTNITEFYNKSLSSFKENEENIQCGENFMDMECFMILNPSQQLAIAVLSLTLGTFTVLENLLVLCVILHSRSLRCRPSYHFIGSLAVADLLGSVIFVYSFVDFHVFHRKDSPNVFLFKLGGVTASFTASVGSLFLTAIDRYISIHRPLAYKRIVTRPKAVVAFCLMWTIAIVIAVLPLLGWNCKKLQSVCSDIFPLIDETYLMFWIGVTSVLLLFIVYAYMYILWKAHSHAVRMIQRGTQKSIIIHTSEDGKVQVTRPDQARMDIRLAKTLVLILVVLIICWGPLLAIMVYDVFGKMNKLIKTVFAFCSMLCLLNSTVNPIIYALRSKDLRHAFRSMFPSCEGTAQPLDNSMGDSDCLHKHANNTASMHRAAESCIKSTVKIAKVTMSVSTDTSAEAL
Source text: Cannabinoid receptor-mediated alteration in GTP-γ-[^35S] binding.
Introduction. The purpose of this assay was to characterize the functional activity of lead compounds identified by the radioligand competition binding assays described above. Data from the GTP-γ-[^35S] binding assay was used to determine if a compound was an agonist, antagonist or inverse agonist at G-protein-linked cannabinoid receptors. Agonist binding to a G-protein-linked receptor results in an increased affinity of the G-protein α-subunit for GTP relative to GDP. Eventually, an active αGTP complex forms to complete the stimulus-effector coupling. The α-subunit has intrinsic GTPase activity which generates a free α-subunit which can recombine with the β- and γ-subunits readying the G-protein for another signal transduction cycle. In the current assay, GTP-γ-[^35S] cannot be hydrolyzed by the α-subunit. Thus, the amount of bound GTP-γ-[^35S] is a marker for G-protein activation. In this assay, an agonist increases basal GTP-γ-[^35S] binding, an inverse agonist decreases basal binding and basal binding would be unaffected by an antagonist.
Experimental Design. The specific binding of GTP-γ-[^35S], in the absence of test compound, was termed “basal” activity. Test compounds were characterized as agonist, antagonist, or inverse agonist based on their effect on basal activity. […] The concentrations spanned two orders of magnitude because affinity may not be related to efficacy. […] Effects of the test compounds are reported as the percent change from basal. More thorough dose-response analysis may be run to determine, for example, if a compound is a full or partial agonist.
Methods. […] In a final volume of 0.5 mL, each assay tube contained: 0.02 mg crude membrane homogenate (0.1 mL), 200 μM GDP (0.05 mL; to reduce basal G-protein activity), 0.1 nM GTP-γ-[^35S] (0.05 mL) and several concentrations of test compound (0.05 mL) or an equivalent volume of vehicle (used for determination of total binding). Nonspecific binding was determined in the presence of 100 μM unlabeled GTP-γ-S (0.05 mL). Duplicate samples were incubated for 1 h at 30° C. Since this assay is amenable for use with high throughput screening methods, the binding assays were run using a 96-well plate format. Specific binding was calculated as total binding-nonspecific binding.

human CB2 receptor = target: T2, human CB2 receptor (Homo sapiens, UniProt P34972); assay: Displacement of 3H-CP55,940 in human CB2 receptor-transfected cells (CHO-K1); format: binding; conditions: radioligand 3H-CP55940, Tables 6 and 7
T2 construct: expressed in transfected cells; host or cells: CHO-K1
T2 sequence (P34972 whole entry): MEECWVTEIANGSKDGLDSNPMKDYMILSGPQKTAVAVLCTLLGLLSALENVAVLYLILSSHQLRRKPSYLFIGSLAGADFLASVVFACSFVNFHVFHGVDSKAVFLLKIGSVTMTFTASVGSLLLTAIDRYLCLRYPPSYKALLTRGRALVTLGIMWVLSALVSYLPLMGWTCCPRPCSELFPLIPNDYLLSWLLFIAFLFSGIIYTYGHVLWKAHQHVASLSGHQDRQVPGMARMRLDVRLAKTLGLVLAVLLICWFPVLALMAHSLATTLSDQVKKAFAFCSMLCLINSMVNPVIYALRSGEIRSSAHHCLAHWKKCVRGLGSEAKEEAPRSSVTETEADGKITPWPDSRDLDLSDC
Procedure: Human CB2 receptor affinity. The relative selectivity of the analogs for CB1 versus CB2 receptors varied modestly regardless of the structural modifications examined to date.
Methods—binding assay in transfected cell lines. The methods used for performing binding assays in transfected cells expressing human CB1 or CB2 receptors are those used above. The CB1 receptor involved a HEK-293 expression system whereas the CB2 receptor was expressed in CHO-K1 cells. […] The incubations and separations were then performed as described above for rat brain membrane preparations.
(§1) Data analysis. Saturation and displacement data were analyzed by unweighted nonlinear regression of receptor binding data. For displacement studies, curve-fitting and IC50 calculation were done with GraphPad Prism (GraphPad Software, Inc., San Diego, Calif.), which fits the data to one and two-site models and compares the two fits statistically. A similar approach was used for the analysis of isotherm data for calculation of Kd's. A two-site fit was accepted only if it was statistically significant (p<0.05) and the following results were not observed:
(§2) IC50 values were then converted to Ki values by reported methods (Cheng and Prusoff, 1973). The statistical evaluation of curve-fitting data allowed for a non-arbitrary conclusion based on the displacement data.

CB1 receptor = target: T3, CB1 receptor (Rattus norvegicus, UniProt P20272); assay: Radioligand displacement in whole rat brain (CB1) membrane preparations; format: binding
T3 construct: Whole rat brains or dissected regions from live CD rats; tissue Charles River or Pel-Freez Biologicals; host or cells: whole rat brain (CD rats), P2 membrane
T3 sequence (P20272 whole entry): as the sequence (P20272 whole entry) above
Source text: CB1 receptor affinity in rat brain.
Methods—membrane preparation from brain. The methods for tissue preparation are essentially those described by Devane et al. (1988) as modified by Compton et al. (1993) and later by Thomas et al. (1998). Whole rat brains or dissected regions from live CD rats from Charles River or Pel-Freez Biologicals (Rogers, Ark.), or human brain sections obtained from the National Disease Research Institute, were allowed to thaw to room temperature on ice. Both whole brain and dissected brain regions were used because different brain regions may express different cannabinoid receptor subtypes (Skaper et al., 1996; Thomas et al., 1998). The tissue was homogenized with a Kontes Potter-Elvehjem glass-Teflon grinding system (Fisher Scientific, Springfield, N.J.) in buffer 1 (320 mM sucrose, 2 mM EDTA, 5 mM MgCl2. The homogenate was centrifuged at 1600 g for 10 min. The supernatant was saved and combined with the two subsequent supernatants obtained from washing and 1600 g centrifugation of the P1 pellet. The combined supernatant fractions were then centrifuged at 39,000 g for 15 min. The P2 pellet was resuspended in 50 mL of buffer 2 (50 mM Tris.HCl, 2 mM EDTA, 5 mM MgCl2, pH 7.0), incubated at 37° C. for 10 min, then centrifuged at 23,000 g for 10 min. The P2 membrane was resuspended in 50 mL of buffer 2, incubated at 30° C. for 40 min, then centrifuged at 11,000 g for 15 min. The final wash-treated P2 pellet was resuspended in assay buffer 3 (50 mM Tris.HCl, 1 mM EDTA, 3 MM MgCl2, pH 7.4). Protein concentrations were determined by the method of Bradford (1976) using Coomassie brilliant blue dye (Bio-Rad, Richmond, Calif.) and BSA standards (bovine serum albumin, fatty acid free, Sigma Chemical Co., St. Louis, Mo.) prepared in assay buffer 3. The membrane preparation was divided into aliquots and stored at −80° C. For use in the binding assay, an aliquot of frozen membranes was thawed on ice and diluted to a concentration of ca. 0.2 mg/mL in assay buffer.
Methods—binding assay in brain membrane preparation. The methods for ligand binding are essentially those described by Devane et al. (1988) with the exception that we used a filtration assay. […] All cannabinoid analogs were prepared by suspension in buffer A from a 1-5 mg/mL ethanolic stock. Following incubation at 30° C. for 1 h, binding was terminated by vacuum filtration through pretreated filters in a 96-well sampling manifold (Millipore, Bedford, Mass.). Reaction vessels were washed at least 3 times with 1 mL of ice cold buffer B (50 mM Tris.HCl, 1 mg/mL BSA). The filter plates were air-dried and sealed on the bottom. Liquid scintillant was added to the wells and the top sealed. After incubating the plates in cocktail for at least 2 h, the radioactivity present was determined by liquid scintillation spectrometry. Assays were done in duplicate, and results represent the combined data of three to six independent experiments. All assays were performed in polypropylene test tubes. The GF/C glassfiber filter plates (Packard, Meriden, Conn.) were pretreated in buffer B for at least 1 h.
as §1, §2

[2] = inverse agonist/antagonist activity, read-out: EC50, GTP-γ-[35S] in Whole Rat Brain
[3] = whole rat brain membranes, radioligand 3H-CP55940, Tables 1 and 2
[4] = whole rat brain membranes, radioligand 3H-SR141716A, Tables 1 and 2
[5] = read-out: Ki, displacement of 3H-CP55940, human CB2 transfected cells
[6] = read-out: Ki, displacement of 3H-CP55940, whole rat brain membranes, radioligand 3H-CP55940, Tables 1 and 2

`CCCCCCn1nc(C(=O)NN2CCCCC2)c(C)c1-c1ccc(Cl)cc1` [MF10278-22-16] was tested, and the “Emax, GTP-γ-[35S] in Whole Rat Brain” value [1] was −71.5 and the EC50 [1, 2] was 74.7 µM.
In the case of SR144528 [reference compound], the “Max. Disp. %, 3H-CP55940” value (human CB2 receptor; human CB2 transfected cells) is reported as 88.4%, the “Max. Disp. %, 3H-CP55940” value (CB1 receptor; [3]) is reported as 84.7% and the “Max. Disp. %, 3H-SR141716A” value (CB1 receptor; [4]) is reported as 68.6%. For the same compound, the “Max. Disp. %, 3H-CP55940” value (CB1 receptor; whole rat brain, 3H-CP55940, Table 4, parallel synthesis analogs, n = 1) was 84.7%, the “Max. Disp. %, 3H-SR141716A” value (CB1 receptor; whole rat brain, 3H-SR141716A, Table 4, parallel synthesis analogs, n = 1) was 68.6% and the “Emax, GTP-γ-[35S] in Whole Rat Brain” value [1] was −27.7.
`Cc1c(C(=O)NN)nn(-c2ccc(Cl)cc2Cl)c1-c1ccc(Cl)cc1` [MF9879-34-8] was tested, and the “Max. Disp. %, 3H-CP55940” value (human CB2 receptor; human CB2 transfected cells) was 80.8%, the Ki (human CB2 receptor; [5]) was 12.1 µM and the Ki (CB1 receptor; [6]) was 0.374 µM. For the same compound, the Ki (CB1 receptor; read-out: Ki, displacement of 3H-SR141716A, whole rat brain membranes, radioligand 3H-SR141716A, Tables 1 and 2) was 0.602 µM, the “Max. Disp. %, 3H-CP55940” value (CB1 receptor; [3]) was 68.4% and the “Max. Disp. %, 3H-SR141716A” value (CB1 receptor; [4]) was 85.9%. It also gave an Emax [1] of -71.7% and an EC50 ([1]; value above highest concentration tested (footnote), read-out: EC50, GTP-γ-[35S] in Whole Rat Brain, value is above highest concentration on displacement curve) of no less than 419 µM.
With `Cc1c(C(=O)NC(C)CO)nn(-c2ccc(Cl)cc2Cl)c1-c1ccc(Cl)cc1` (single isomer, unassigned) [MF9725-106-39] the Ki (human CB2 receptor; Ki, displacement of 3H-CP55940, human CB2 transfected cells) was 1.77 µM, the “Max. Disp. %, 3H-CP55940” value (human CB2 receptor; human CB2 transfected cells) was 52.1% and the Ki (CB1 receptor; Ki, displacement of 3H-SR141716A, whole rat brain membranes, radioligand 3H-SR141716A, Tables 1 and 2) was 0.0998 µM. For the same compound, the Ki (CB1 receptor; [6]) was 0.117 µM, the “Max. Disp. %, 3H-CP55940” value (CB1 receptor; [3]) was 89.7% and the “Max. Disp. %, 3H-SR141716A” value (CB1 receptor; [4]) was 100%. For the same compound, the “Emax, GTP-γ-[35S] in Whole Rat Brain” value [1] was −83.0 and the EC50 [1, 2] was 292 µM.
`Cc1c(C(=O)NCCCCO)nn(-c2ccc(Cl)cc2Cl)c1-c1ccc(Cl)cc1` [MF9725-95-31] was tested, and the “Max. Disp. %, 3H-CP55940” value (human CB2 receptor; human CB2 transfected cells) was 54.3%, the Ki (human CB2 receptor; [5]) was 5.72 µM and the Ki (CB1 receptor; [6]) was 0.154 µM. For the same compound, the “Max. Disp. %, 3H-CP55940” value (CB1 receptor; [3]) was 88.7%, the “Max. Disp. %, 3H-SR141716A” value (CB1 receptor; [4]) was 97.6% and the Emax [1] was -79.5%. The EC50 [1, 2] was 304 µM.
In the case of `Cc1c(C(=O)NN2CCCCC2)nn(-c2ccccc2)c1-c1ccc(Cl)cc1` [MF9879-64-23], the “Emax, GTP-γ-[35S] in Whole Rat Brain” value [1] is reported as −47.2 and the EC50 [1, 2] is reported as 361 µM.
